Data set [1] deals with zebrafish non-alcoholic fatty liver. As to the kind of experiment: Fat reduction or elimination effect on thioacetamide-induced zebrafish non-alcoholic fatty liver (Oil Red O staining). It counts as in vivo. The settings on record: for The total optical density of liver fat: mean ± SE, n = 10. The procedure: 40 mM stock solution of test compounds 4, 5, 6, 7, 46, 67, 78, 85, 92 and 101 were prepared with DMSO, and stored in a refrigerator at −20° C. The positive control compound S-adenosylmethionine (SAM) was purchased from Aladdin Reagent (Shanghai) Co., Ltd., with the batch number F1523051, which was prepared into a 50 mM stock solution with DMSO. The control compound silymarin was purchased from Shanghai Dibai Biotechnology Co., Ltd., with the batch number EE09, which was prepared into a 40 mM stock solution with DMSO. Thioacetamide was purchased from Sigma-Aldrich, with the batch number BCBV3031, which wasprepared into a 1 M stock solution with DMSO. Oil Red O was purchased from Sigma-Aldrich, with the batch number SLBP5248V. 4% paraformaldehyde was purchased from Dingguo Biotechnology Co., Ltd., with the batch number 773001800. Propylene glycol was purchased from Sinopharm Chemical Reagent Co., Ltd., with the batch number 20170615.
The melanin allele mutant translucent Albino line zebrafish was reproduced in natural paired mating. The fish age was 3 days after fertilization, with 30 fish per experimental group.
The above zebrafish were raised in fish farming water at 28° C. (water quality: 200 mg instant sea salt was added to 1 L of reverse osmosis water, conductivity was 480-510 μS/cm; pH was 6.9-7.2; hardness was 53.7-71.6 mg/L CaCOs), the experimental animal use license number was: SYXK (Zhejiang) 2012-0171. Feeding management met the requirements of international AAALAC certification.
Three days after fertilization, the normal melanin allele mutant translucent Albino strain of zebrafish was randomly selected and placed in a six well plate with 30 fish per well (i.e. each experimental group), and then thioacetamide with the final concentration of 7 mM was used to treat zebrafish for 72 hours to establish the non-alcoholic fatty liver model.
The zebrafish were transferred to a six-well plate, with 30 fish per well (i.e., each experimental group) randomly. Non-alcoholic fatty liver model in zebrafish were induced by thioacetamide. 40 mM test compounds 4, 5, 6, 7, 46, 67, 78, 85, 92 and 101 were quantitatively transferred to a six-well plate, and diluted with water to the corresponding concentration. Test compounds 4, 5, 6 and 7 were formulated into two dose groups with final concentration of 100 μM and 200 μM, respectively; test compound 46 was formulated into a dose group with final concentration of 200 μM; test compounds 67, 78, 85, 92 and 101 were formulated into dose groups with a final concentration of 100 μM; 50 mM positive control SAM was formulated with water to a dose group with final concentration of 50 μM, and a 40 mM positive control silymarin was formulated with water to two concentration dose groups with final concentration of 100 μM and 200 μM. A normal control group (zebrafish treated with fish farming water) and a model control group were set at the same time, and the total volume of each well was 3 mL. Except for the normal control group, the other experimental groups were treated with thioacetamide for 72 hours and stained with Oil Red O. After staining, 10 zebrafish were randomly selected from each experimental group and photographed under a dissecting microscope, NIS-Elements D 3.10 advanced image processing software was used to perform image analysis and collect data, the total optical density (S) of zebrafish liver fat was statistically analyzed, and for the inhibitory effect of each experimental group on liver steatosis of zebrafishwas evaluated by the following formula, the results of statistical analysis were expressed as mean±SE: Inhibition rate of liver steatosis (%)=[S(model control group)−S(test compound group)]/[S(model control group)−S(normal control group)]×100%
Statistical analysis was performed using analysis of variance and Dunnett's T-test, and p<0.05 indicated a significant difference. […]

The next data set deals with NASH mice. The experiment in a line: Efficacy on non-alcoholic steatohepatitis (NASH) mice fed high-fat feed. It counts as in vivo, C57BL/6 mice. The settings on record: for Liver coefficient (liver weight/body weight) / Liver weight: 28 days; for Liver weight: X ± SD. The procedure:
The test compounds were 4 and 7, respectively; the positive control silymarin was purchased from Shanghai Dibai Biotechnology Co., Ltd., with the batch number HH06.
Low-dose group (35 mg/kg) solution preparation: the quantitative test compound was precisely weighed and a certain amount of normal saline was added to prepare the oral suspension solution with the concentration of 3.5 mg/mL. The administration volume was 10 mL/kg.
High-dose group (70 mg/kg) solution preparation: the quantitative test compound was precisely weighed and a certain amount of normal saline was added to prepare the oral suspension solution with the concentration of 7.0 mg/mL. The administration volume was 10 mL/kg.
High-fat feed: basic feed ingredients were corn, flour, imported fish meal, soybean meal, secondary meal, yeast meal, soybean oil, etc. The high-fat feed was prepared from 73.6% basic feed with 10% lard, 10% egg yolk powder, 5% sucrose, 1.2% cholesterol and 0.2% pig bile salt.
Source, species, strain: C57BL/6 mice, provided by Beijing Vital River Laboratory Animal Technology Co., Ltd. Nanjing Branch (experimental animal production license: SCXK (Su) 2016-0003); experimental animal use license: SYXK (Jun) 2012-0049; age: 6-8 weeks at the beginning of dosing; weight: 18-22 g; gender: half male and half female.
After 3 days of adaptive feeding with normal feed, the mice were randomly assigned according to body weight: 8 mice were fed with normal feed and set as normal control (NC); the rest of mice were fed with high-fat feed until the end of the experiment. The mice were weighed and recorded every 3 days. After feeding with high-fat diet for 56 days (8 weeks), blood samples were collected from the orbital vein of mice to detect the blood biochemical indexes to identify whether the modelling was successful.
After successful modeling, the mice in the high-fat feed group were randomly divided into 6 groups with 8 animals in each group, including model group, compound 4 low dose group, compound 4 high dose group, compound 7 low dose group, compound 7 high dose group and silymarin high-dose group. The mice in each group were administered intragastrically according to the animal's body weight every day for 28 consecutive days (4 weeks). At the same time, during the administration period, the mice in each administration group and model group continued to be fed with high-fat feed until the end of the experiment. The normal control group was administered the corresponding volume of normal saline.
On the last day of the experiment, the mice in each group were fasted for 8 hours, blood was taken from the orbit and the serum was separated and then stored at −20° C. After blood collection, the mice were sacrificed and the liver was quickly separated, weighed and stored in a refrigerator at −80° C. Serum samples and liver tissue samples were subjected to determinations of serum triglyceride (TG), serum total cholesterol (TC), serum high-density lipoprotein (HDL-C), serum low-density lipoprotein (LDL-C), serum alanine aminotransferase (ALT), serum aspartate aminotransferase (AST), serum tumor necrosis factor alpha (TNFα), liver triglycerides (TG), liver total cholesterol (TC), liver malondialdehyde (MDA), liver superoxide dismutase (SOD); in addition, some livers of mice in the blank control group, model group, compound 7 low-dose group and silymarin high-dose group were fixed in neutral formaldehyde fixed solution and then HE staining was performed to analyzed the pathological changes of liver tissue.

Data set [2] can be described thus: Determination of compound solubility in PBS buffer (LC-MS/MS). It counts as physicochemical. The settings on record: for solubility at 2 h: 25 °C, kinetic from dmso stock; for Solubility in PBS buffer solution compared with silymarin (in words): pH 4. The procedure:
The test compounds were 7, 67 and 85, respectively; the control compound was silymarin, purchased from Shanghai Dibai Biotechnology Co., Ltd., with the batch number HH06. Both the test compounds and the control compound were prepared into 10 mM stock solutions using DMSO. Phosphate buffered saline (PBS), with pH of 4.0 and 7.4, was used to test the solubility of the test compounds.
Treatment of test compound and control compound: 30 μL of test compound or control compound stock solution (10 mM) per well was added in a specially made solubility sample plate, and then 970 μL of PBS with different pH was added to each well (pH was 4.0 and 7.4, respectively). Repeated wells were set in the test. A stir bar was added to each well that was covered with a polytetrafluoroethylene or silica gel plug. Stirring was performed at 25° C. at 1100 rpm for 2 hours. 10 μL of sample was taken from each well, and then 990 μL of water and acetonitrile mixture (including internal standard substance) was added to mix well, followed by filtering with a filter plate.
Standard treatment: 10 mM stock solution was diluted with DMSO to 300 μM, then 10 μL of compound diluent was taken, and 990 μL of water and acetonitrile mixture (including internal standard substance) was added to mix well and formulated into a standard solution with the final concentration 3 μM.
The solubility sample plate was placed in the autosampler and the LC-MS/MS method was used for analysis. The concentration of the test compound was calculated by the response value of the test compound and standard, and the concentration of the standard.

Data set [3] has as its system adults with nonalcoholic steatohepatitis (NASH) and fibrosis stages F2-F3. Conditions: phase II clinical results; cited from earlier work.
The subject of data set [4] is Patients With Primary Biliary Cirrhosis. The settings on record: phase III study; cited from earlier work.
The mark [5] stands for this setting: Danio rerio, 100 μM, read-out: Inhibition rate of liver steatosis.

≈ marks a conversion by molar mass, not a printed value. Marks after values point to notes of the source that are not given here. A value given as a limit tells only on which side of the number the result lay.

A word on the inhibition: it is the percentage by which the read-out fell short of the control. The term solubility denotes the dissolved amount per volume that the medium holds. Lower therefore signals a poorly soluble substance.

Regarding `COc1cc(C2Oc3cc(C4Oc5cc(O)cc(O)c5C(O)C4O)cc(O)c3OC2CO)ccc1O` (stereo not shown) [Compound 4, 2-{8-hydroxy-3-(4-hydroxy-3-methoxyphenyl)-2-hydroxymethyl-2,3-dihydrobenzo[b][1,4]dioxan-6-yl}chroman-3,4,5,7-tetraol], in data set [1] (100 μM), the “Therapeutic effect on non-alcoholic fatty liver of zebrafish (in words)” value is on record as “significant therapeutic effects” and the “The total optical density of liver fat” value was determined as 18598 ± 608 Pixels. In data set [1] (200 μM), the “Therapeutic effect on zebrafish non-alcoholic fatty liver (in words)” value was “significant therapeutic effect” and the “The total optical density of liver fat” value is recorded as 17802 ± 487 Pixels. Moreover, the inhibition at 100 µM in data set [1] (setting [5]) was found to be 83%. The inhibition at 200 µM in data set [1] (Danio rerio, 200 μM, read-out: Inhibition rate of liver steatosis) was determined as 99%. The TG with NASH mice (35 mg/kg/day) is recorded as 1.21 ± 0.05 mmol/L. For the same compound, in the data set on NASH mice (35 mg/kg/day intragastric), the “Liver coefficient (liver weight/body weight)” value is 4.43 ± 0.31 % and the Liver weight is on record as 1.39 ± 0.03 g. Also, in the data set with NASH mice (70 mg/kg/day), the TG was found to be 1.18 ± 0.06 mmol/L. Further, in the data set on NASH mice (70 mg/kg/day intragastric), the “Liver coefficient (liver weight/body weight)” value is 4.54 ± 0.33 % and the Liver weight was determined as 1.43 ± 0.03 g. The “Therapeutic effect on non-alcoholic steatohepatitis in mice (in words)” value in the data set on NASH mice (35 and 70 mg/kg) is listed as “significant therapeutic effects”. In the data set on NASH mice (liver, 35 mg/kg/day), this compound registered an MDA of 2.91 ± 0.42 nmol/mg, an SOD of 18.08 ± 3.90 U/mg and a TC of 1.51 ± 0.06 mmol/L. In the data set on NASH mice (liver, 70 mg/kg/day), this compound yielded an MDA of 2.80 ± 0.21 nmol/mg, an SOD of 17.42 ± 4.16 U/mg and a TC of 1.51 ± 0.11 mmol/L. For the same compound, in the data set with NASH mice (serum, 35 mg/kg/day), the ALT was 89.08 ± 18.93 U/L, the AST amounted to 140.13 ± 13.93 U/L, the HDL-C is recorded as 0.95 ± 0.33 mmol/L and the LDL-C came to 2.55 ± 0.50 mmol/L. Further, in the data set with NASH mice (serum, 35 mg/kg/day), the TC stood at 2.59 ± 0.32 mmol/L, the TG is 1.18 ± 0.02 mmol/L and the TNF-α is listed as 414.20 ± 13.46 ng/L. For the same compound, in the data set on NASH mice (serum, 70 mg/kg/day), the ALT is given as 98.29 ± 75.07 U/L, the AST amounted to 120.04 ± 12.55 U/L, the HDL-C came to 0.97 ± 0.37 mmol/L and the LDL-C came to 2.13 ± 0.54 mmol/L. In the data set on NASH mice (serum, 70 mg/kg/day), this compound displayed a TC of 2.58 ± 0.30 mmol/L, a TG of 1.24 ± 0.16 mmol/L and a TNF-α of 415.80 ± 13.54 ng/L.

For the compound `COc1cc(O)c2c(c1)OC(c1cc(O)c3c(c1)OC(c1ccc(O)c(OC)c1)C(CO)O3)C(O)C2` (stereo not shown) [Compound 67, 2-{8-hydroxy-3-(4-hydroxy-3-methoxyphenyl)-2-hydroxymethyl-2,3-dihydrobenzo[b][1,4]dioxan-6-yl}-7-methoxychroman-3,5-diol], in data set [1] (100 μM), the “Inhibition rate of liver steatosis” value is >100*** %, the “Therapeutic effect on non-alcoholic fatty liver of zebrafish (in words)” value was “significant therapeutic effects” and the “The total optical density of liver fat” value worked out at 16667 ± 469 Pixels. In addition, the inhibition at 100 µM in data set [1] (setting [5]) was > 100%. The same compound showed a solubility at 2 h in data set [2] (pH 4, aqueous buffer) of 148 µM (≈ 73.9 µg/mL). In data set [2] (pH 7.4, aqueous buffer), the concentration in solution (solubility at 2 h) came to 146 µM (≈ 72.9 µg/mL). For the same compound, the “Solubility in PBS buffer solution compared with silymarin (in words)” value in data set [2] is “significantly higher than that of silymarin”.

`COc1cc(C2Oc3cc(C4Oc5cc(O)cc(OC)c5CC4O)cc(O)c3OC2CO)ccc1O` (stereo not shown) [Compound 85, 2-{8-hydroxy-3-(4-hydroxy-3-methoxyphenyl)-2-hydroxymethyl-2,3-dihydrobenzo[b][1,4]dioxan-6-yl}-5-methoxychroman-3,7-diol]: in data set [1] (100 μM), the “Inhibition rate of liver steatosis” value was >100*** %, the “Therapeutic effect on non-alcoholic fatty liver of zebrafish (in words)” value is “significant therapeutic effects” and the “The total optical density of liver fat” value amounted to 17378 ± 710 Pixels. Moreover, the inhibition at 100 µM in data set [1] (setting [5]) was > 100%. In data set [2] (pH 4, aqueous buffer), this compound had a solubility at 2 h of 160 µM (≈ 79.7 µg/mL). Moreover, the concentration in solution in data set [2] (pH 7.4, aqueous buffer) (solubility at 2 h) came to 150 µM (≈ 75 µg/mL). Further, the “Solubility in PBS buffer solution compared with silymarin (in words)” value in data set [2] is reported as “significantly higher than that of silymarin”.

As to `Cc1cc(F)c(C(=O)Nc2cccc(-c3nncn3C(C)C)n2)cc1-n1cnc(C2CC2)c1` [GS-4997], the “subjects with improved fibrosis after treatment” value in data set [3] is 43%.

As for `CC[C@H]1[C@@H](O)[C@@H]2[C@H](CC[C@]3(C)[C@@H]([C@H](C)CCC(=O)O)CC[C@@H]23)[C@@]2(C)CC[C@@H](O)C[C@@H]12` [Obeticholic acid], the “patients with serious cardiovascular adverse events” value in data set [4] is 3%.

The values are drawn from US11643405B2, “Compound for treatment or prevention of liver diseases” (JIANGSU ATOM BIOSCIENCE AND PHARMACEUTICAL CO., LTD., priority 2018, dated 2023).
